In patent publication US7544377B2, “Chewable compositions with fast release magnolia bark extract” (GIC Innovations Company, priority 2005, dated 2009):

Legend:
[1] = test system: bacteria from freshly-collected simulated whole saliva (biofilm); experiment: Mixed culture saliva biofilm on saliva-coated hydroxyapatite discs, timed exposure to actives; format: cell-based; conditions: for % OD reduction (600 nm): Table 8
Protocol: Although useful to show the comparative effect of Magnolia Bark Extract on biofilm formation and MIC growth, the foregoing test procedure may not effectively mimic the in vivo exposure of an oral care product to a developing plaque biofilm. In an in vivo situation, the active could be exposed to the plaque for a defined period of time at a set frequency (for example, for 5 minutes, three times a day). Therefore, a series of comparative experiments were conducted to mimic the in vivo use of potential active ingredients. To perform the tests the saliva compositions listed below in Tables 2 and 3 were prepared.
A mixed culture system that utilizes the bacteria from freshly-collected simulated whole saliva was used. Saliva cell pellets were used to inoculate saliva-coated hydroxyapatite (S-HA) discs. The discs were placed in 24-well cell culture plates and incubated for up to 3 days. Biofilms were exposed to actives on days 2 and 3 (starting at 18 hours), and quantified on day 4. The number of bacteria was determined by spectrophotometric absorbance or optical density (OD) at 600 nm. The five phases of the experiment were: pellicle formation; bacterial attachment; biofilm growth; exposure to actives; and bacterial enumeration.
To form the pellicles, HA Discs were ultrasonically washed in deionized water and air-dried, then autoclaved. The discs were placed in a 24-well plate with 1 ml 50% sterile saliva (1 part sterile whole saliva: 1 part saliva buffer, filter sterilize after preparation) for 2 hours on slow agitation at room temperature. The saliva was suctioned and then the discs were transferred to fresh wells for bacterial attachment.
To form the biofilms, the bacterial suspension was removed, and the discs were transferred to fresh wells. One ml of supplemented saliva medium was added and the plate was placed in the incubator for overnight incubation and for the duration of the experiment (up to 72 hours).
A stock solution of 1% Magnolia Bark Extract in 60% ethanol was prepared. Magnolia Bark Extract samples were prepared having a concentration range of 125, 250, 500, and 1000 μg/ml (ppm) in a Phosphate-Buffered-Saline (PBS) solution, where the negative control was PBS and the positive control was CHX having a concentration of 0.12%.
One-ml quantities of active ingredients and controls were placed into fresh wells, and the discs were transferred to these wells for 5 minutes. The chlorhexidine control exposure was one minute, two times a day to mimic the standard mouth-rinse procedure. The exposure to active ingredient was carried out at 8:00 AM, 12:00 and 4:00 PM. After the timed exposure, the solution was removed and the discs washed twice with PBS and then transferred to fresh medium. For some experiments, the medium used during the day was TSB (Tryptic Soy Broth) with a 50 μl 40% sterile sucrose solution added to each well (to give a 2% sucrose solution). The medium was not replaced after the mid-day exposure.
After overnight incubation (day 2), discs were exposed to controls and actives. On day 3 the biofilms were again exposed to tests and controls. On day 4 the discs were removed from the medium, the medium pH was measured to obtain an indication of metabolic activity, and the discs were placed into tubes with 2.5 ml PBS, vortexed for 20 sec, and then placed into the ultrasonic bath for another 20 sec. The suspension was transferred into cuvettes and the bacterial cell density determined by OD measurements at 600 nm.
To evaluate the effect of Magnolia Bark Extract in combination with the surface active agent, sodium lauryl sulfate, five active ingredient solutions were prepared using the procedures described above. […] Also, the MBE solutions were prepared to have a concentration of 500 ppm. Sodium lauryl sulfate was added to two of the Magnolia Bark Extract solutions to obtain SLS concentrations of 0.05% and 0.1% in the Magnolia Bark Extract solutions. […]

incubated saliva = experiment: MIC of surface active agents and emulsifiers, two-fold broth dilution; format: cell-based; conditions: 24 hours at 37° C., lowest dilution not turbid
Protocol: (§1) To evaluate the germ-kill efficacy and synergist effect when two or more germ-kill actives are combined, testing was performed to determine the ratio of MBE to surface active agent. The germ-kill active and/or surface active agent were dissolved in ethanol or sterile water to give an initial concentration 0.1% to 1%. The solution was diluted with a nutrient broth to give an initial concentration of 0.05% to 0.5%, which was then serially diluted two-fold so that each subsequent dilution contained 50% of the compound concentration of the previous dilution while maintaining a constant level of nutrients for each dilution. These dilutions were inoculated with representative oral microorganisms, or incubated saliva, and incubated for 24 hours at 37° C. For each surface active agent, the lowest dilution that was not turbid was registered as the MIC. The MBC was determined by transferring 10 microliter of liquid from non-turbid tubes to fresh growth media and incubated for 48 hours.

S. mutans = experiment: MIC and fractional inhibitory index of MBE / surface active agent combinations; format: cell-based, Streptococcus mutans; conditions: 24 hours at 37° C.
Protocol: as §1
(1) where an FIC value of less than 1.0 is synergistic, an FIC between 1.0 and 2.0 is additive, and an FIC greater than 2.0 is antagonistic.

[H]/N=C(\N/C(=N/[H])NCCCCCCNC(=N)NC(=N)Nc1ccc(Cl)cc1)Nc1ccc(Cl)cc1 [CHX, chlorhexidine]
pH (medium pH, indication of metabolic activity) ([1]; Table 5, CHX 0.12%, exposure one minute, two times a day): 8.8
% OD reduction (600 nm, compared to PBS control) ([1]; Table 6, CHX 0.12%, exposure one minute, two times a day): 84%
pH (medium pH, indication of metabolic activity) ([1]; Table 7, CHX 0.1% (1000 ppm)): 8.8
% OD reduction (600 nm) ([1]; CHX 0.1% (1000 ppm)): 94%

CCCCCCCCCCCCOS(=O)(=O)[O-].[Na+] [SLS, sodium lauryl sulfate]
pH (medium pH, indication of metabolic activity) ([1]; Table 7, SLS 1000 ppm): 5.7
% OD reduction (600 nm) ([1]; SLS 1000 ppm): 61%

Sucrose Distearate
MIC (ppm) (incubated saliva): >500 ppm

Sucrose Stearate
MIC (ppm) (incubated saliva): >500 ppm

Sodium Brasslate
MIC (ppm) (incubated saliva): 500 ppm

N=C(NCCCCCCNC(=N)NC(=N)Nc1ccc(Cl)cc1)NC(=N)Nc1ccc(Cl)cc1.O=C(O)[C@H](O)[C@@H](O)[C@H](O)[C@H](O)CO.O=C(O)[C@H](O)[C@@H](O)[C@H](O)[C@H](O)CO [Chlorhexidine gluconate]
MIC (ppm) (incubated saliva): 2 ppm
MIC/ppm (S. mutans): 2 ppm

Sodium Stearoyl Lactylate
MIC (ppm) (incubated saliva): >3000 ppm
